# Measured values published in patent US9382228B2 (priority 2013, dated 2016).
# Assays:
# [1] = target: unphosphorylated PDGFRβ kinase (uPDGFRβ, Seq. ID No. 3) (Homo sapiens, UniProt P09619); assay: biochemical
# Description: Unphosphorylated PDGFRβ (uPDGFRβ) Kinase (Seq. ID No. 3) Assay
# In this assay, the oxidation of NADH (thus the decrease at A340 nm) was continuously monitored spectrophometrically. […] The inhibition reaction was started by mixing serial diluted test compound with the above reaction mixture. The absorption at 340 nm was monitored continuously for 4 h at 30° C. on a Polarstar Optima or Synergy 2 plate reader. The reaction rate was calculated using the 1.5 to 2.5 h time frame. Percent inhibition was obtained by comparison of reaction rate with that of a control (i.e. with no test compound). IC50 values were calculated from a series of percent inhibition values determined at a range of inhibitor concentrations using software routines as implemented in the GraphPad Prism software package.
# [2] = target: T1, unphosphorylated c-FMS kinase (uFMS, Seq. ID no. 1) (Homo sapiens, UniProt P07333); assay: biochemical
# T1 sequence (P07333 538-972): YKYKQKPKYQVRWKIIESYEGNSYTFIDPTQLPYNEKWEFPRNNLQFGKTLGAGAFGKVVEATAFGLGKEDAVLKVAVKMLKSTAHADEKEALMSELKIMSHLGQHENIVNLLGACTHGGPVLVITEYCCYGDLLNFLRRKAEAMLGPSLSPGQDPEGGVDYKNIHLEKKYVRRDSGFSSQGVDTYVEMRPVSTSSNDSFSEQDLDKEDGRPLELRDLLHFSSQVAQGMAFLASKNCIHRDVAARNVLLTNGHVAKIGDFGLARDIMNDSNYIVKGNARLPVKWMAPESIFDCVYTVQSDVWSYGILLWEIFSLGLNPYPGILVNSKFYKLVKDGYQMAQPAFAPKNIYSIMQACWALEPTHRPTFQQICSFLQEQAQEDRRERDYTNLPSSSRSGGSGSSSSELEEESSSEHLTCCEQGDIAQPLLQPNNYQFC
# [3] = system: M-NFS-60 cells; assay: cells; details: 67 h, read-out: M-NFS-60 cell proliferation
# Description: M-NFS-6 Cell Proliferation Assay
# A serial dilution of test compound was dispensed into a 384-well black clear bottom plate (Corning, Corning, N.Y.). Two thousand five hundred cells were added per well in 50 μL complete growth medium. […] IC50 values were calculated from a series of percent inhibition values determined at a range of inhibitor concentrations using software routines as implemented in the GraphPad Prism software package.
# [4] = system: osteoclast precursors; assay: cells; format: cell-based; details: read-out: Osteoclast assay
# [5] = system: phospho-FMS in THP-1 cells; assay: cells; details: Homo sapiens, THP-1, read-out: pFMS inhibition in THP-1 cells
# Description: In a separate 96 well black clear bottom plate, one hundred and fifty thousand THP-1 cells were added per well in 100 μL in assay medium. Fifty microliters of diluted compound was then added to the cells. […] Lysates were prepared and used to perform the phospho-FMS ELISA as described by the manufacturer (catalog #DYC3268, R & D Systems, Minneapolis, Minn.). GraphPad Prism was used to calculate IC50 values obtained from data generated from the ELISA assay.
# [6] = target: unphosphorylated c-KIT kinase (uKIT, Seq. ID no. 2) (Homo sapiens, UniProt P10721); assay: biochemical
# Description: uKit kinase (Seq. ID No. 2) Assay
# In this assay, the oxidation of NADH (thus the decrease at A340 nm) was continuously monitored spectrophometrically. […] The inhibition reaction was started by mixing serial diluted test compound with the above reaction mixture. The absorption at 340 nm was monitored continuously for 4 hours at 30° C. on Synergy 2 plate reader (BioTech).
# [7] = uPDGFRb, enzymatic assay, ATP 500 μM
# [8] = uFMS, enzymatic assay, ATP 500 μM
# [9] = uKIT, enzymatic assay, ATP 2000 μM
# Chain of unphosphorylated c-KIT kinase (uKIT, Seq. ID no. 2) (P10721 with tags, fused parts or gaps): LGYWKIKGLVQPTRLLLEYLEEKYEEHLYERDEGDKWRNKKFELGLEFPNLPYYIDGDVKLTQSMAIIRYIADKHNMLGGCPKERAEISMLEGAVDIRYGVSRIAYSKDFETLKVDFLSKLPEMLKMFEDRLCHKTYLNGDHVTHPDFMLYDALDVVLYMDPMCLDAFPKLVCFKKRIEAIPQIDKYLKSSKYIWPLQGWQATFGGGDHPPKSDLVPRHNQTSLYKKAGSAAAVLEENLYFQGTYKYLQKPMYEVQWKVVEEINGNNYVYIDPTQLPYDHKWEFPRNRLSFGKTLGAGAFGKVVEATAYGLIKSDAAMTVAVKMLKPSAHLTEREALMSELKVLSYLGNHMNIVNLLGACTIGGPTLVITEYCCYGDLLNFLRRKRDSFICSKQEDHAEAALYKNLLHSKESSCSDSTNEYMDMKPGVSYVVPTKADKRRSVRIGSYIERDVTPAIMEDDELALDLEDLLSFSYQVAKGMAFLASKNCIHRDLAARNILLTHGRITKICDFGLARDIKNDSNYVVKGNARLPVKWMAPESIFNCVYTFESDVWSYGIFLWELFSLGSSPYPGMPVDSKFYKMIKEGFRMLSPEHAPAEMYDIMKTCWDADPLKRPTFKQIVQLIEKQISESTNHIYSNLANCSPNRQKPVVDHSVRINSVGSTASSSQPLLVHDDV
# Chain of unphosphorylated PDGFRβ kinase (uPDGFRβ, Seq. ID No. 3) (P09619 557-1106): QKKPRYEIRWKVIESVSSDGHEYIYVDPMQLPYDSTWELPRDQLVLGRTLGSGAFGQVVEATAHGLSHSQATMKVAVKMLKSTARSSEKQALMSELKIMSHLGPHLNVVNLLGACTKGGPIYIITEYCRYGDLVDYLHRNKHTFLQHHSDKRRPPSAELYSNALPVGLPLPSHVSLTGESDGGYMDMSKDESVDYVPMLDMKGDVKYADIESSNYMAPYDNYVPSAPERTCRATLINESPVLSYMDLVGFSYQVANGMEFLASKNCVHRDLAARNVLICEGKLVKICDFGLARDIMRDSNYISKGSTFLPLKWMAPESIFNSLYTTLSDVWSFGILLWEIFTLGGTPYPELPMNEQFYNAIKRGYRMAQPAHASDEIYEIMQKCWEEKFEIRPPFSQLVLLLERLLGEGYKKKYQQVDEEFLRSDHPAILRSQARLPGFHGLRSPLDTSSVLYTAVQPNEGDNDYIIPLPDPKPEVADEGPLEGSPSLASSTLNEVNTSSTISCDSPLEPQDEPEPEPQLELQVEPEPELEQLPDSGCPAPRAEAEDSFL
Compound,"IC50 [1, 7]","IC50 [2, 8]",IC50 [3],IC50 [4],IC50 [5],"IC50 [6, 9]","IC50 ([1]; IC50 (nM) uPDGFRβ, Table 3)","IC50 ([2]; IC50 (nM) uFMS, Table 3)","IC50 ([6]; IC50 (nM) uKIT, Table 3)"
"Cc1nc(NC(=O)NC(=O)C(C)(C)C(F)(F)F)ccc1Oc1ccnc(-c2cnn(C)c2)c1 [Example 36, 3,3,3-trifluoro-2,2-dimethyl-N-((6-methyl-5-((2-(1-methyl-1H-pyrazol-4-yl)pyridin-4-yl)oxy)pyridin-2-yl)carbamoyl)propanamide]",100 to 1000 nM,< 10 nM,10 to 100 nM,10 to 100 nM,10 to 100 nM,100 to 1000 nM,,,
"Cn1cc(-c2cc(Oc3ccc(NC(=O)NC(=O)C45CC6CC(CC(C6)C4)C5)nc3)ccn2)cn1 [Example 38, N-((5-((2-(1-methyl-1H-pyrazol-4-yl)pyridin-4-yl)oxy)pyridin-2-yl)carbamoyl)adamantane-1-carboxamide]",< 10 nM,< 10 nM,10 to 100 nM,10 to 100 nM,10 to 100 nM,10 to 100 nM,,,
"CN1CCN(CC(=O)NC(=O)Nc2ccc(Oc3ccnc(-c4cnn(C)c4)c3)cn2)CC1 [Example 49, N-((5-((2-(1-methyl-1H-pyrazol-4-yl)pyridin-4-yl)oxy)pyridin-2-yl)carbamoyl)-2-(4-methylpiperazin-1-yl)acetamide]",> 1000 nM,10 to 100 nM,> 1000 nM,100 to 1000 nM,100 to 1000 nM,> 1000 nM,,,
"Cn1cc(-c2cc(Oc3ccc(NC(=O)NC(=O)C4CC4)nc3)ccn2)cn1 [Example 51, N-((5-((2-(1-methyl-1H-pyrazol-4-yl)pyridin-4-yl)oxy)pyridin-2-yl)carbamoyl)cyclopropanecarboxamide]",> 1000 nM,< 10 nM,10 to 100 nM,< 10 nM,< 10 nM,100 to 1000 nM,,,
"CCn1cc(-c2cc(Oc3ccc(NC(=O)NC(=O)C(C)(C)C)nc3C)ccn2)cn1 [Example 60, N-((5-((2-(1-ethyl-1H-pyrazol-4-yl)pyridin-4-yl)oxy)-6-methylpyridin-2-yl)carbamoyl)pivalamide]",> 1000 nM,< 10 nM,10 to 100 nM,10 to 100 nM,< 10 nM,> 1000 nM,,,
"CCn1cc(-c2cc(Oc3ccc(NC(=O)NC(=O)C(C)C)nc3C)ccn2)cn1 [Example 61, N-((5-((2-(1-ethyl-1H-pyrazol-4-yl)pyridin-4-yl)oxy)-6-methylpyridin-2-yl)carbamoyl)isobutyramide]",> 1000 nM,< 10 nM,10 to 100 nM,< 10 nM,< 10 nM,> 1000 nM,,,
"Cn1cc(-c2cc(Oc3ccc(NC(=O)NC(=O)C4CCOC4)nc3)ccn2)cn1 (stereo not drawn) [Example 66, N-((5-((2-(1-methyl-1H-pyrazol-4-yl)pyridin-4-yl)oxy)pyridin-2-yl)carbamoyl)tetrahydrofuran-3-carboxamide]",> 1000 nM,< 10 nM,10 to 100 nM,< 10 nM,< 10 nM,100 to 1000 nM,,,
"CCC(C)(C)C(=O)NC(=O)Nc1ccc(Oc2ccnc(-c3cnn(C)c3)c2)c(C)n1 [Example 69, 2,2-dimethyl-N-((6-methyl-5-((2-(1-methyl-1H-pyrazol-4-yl)pyridin-4-yl)oxy)pyridin-2-yl)carbamoyl)butanamide]",100 to 1000 nM,< 10 nM,< 10 nM,10 to 100 nM,10 to 100 nM,100 to 1000 nM,,,
"Cc1ncc(-c2cc(Oc3ccc(NC(=O)NC(=O)C(C)(C)C)nc3)ccn2)s1 [Example 70, N-((5-((2-(2-methylthiazol-5-yl)pyridin-4-yl)oxy)pyridin-2-yl)carbamoyl)pivalamide]",100 to 1000 nM,< 10 nM,10 to 100 nM,< 10 nM,10 to 100 nM,> 1000 nM,922 nM,4 nM,2600 nM
"Cc1ccc(-c2cc(Oc3ccc(NC(=O)NC(=O)C(C)C)nc3C)ccn2)cn1 [Example 71, N-((6-methyl-5-((6′-methyl-[2,3′-bipyridin]-4-yl)oxy)pyridin-2-yl)carbamoyl)isobutyramide]",> 1000 nM,< 10 nM,10 to 100 nM,< 10 nM,10 to 100 nM,> 1000 nM,,,
"COC(C)(C)C(=O)NC(=O)Nc1ccc(Oc2ccnc(-c3ccc(C)nc3)c2)cn1 [Example 72, 2-methoxy-2-methyl-N-((5-((6′-methyl-[2,3′-bipyridin]-4-yl)oxy)pyridin-2-yl)carbamoyl)propanamide]",100 to 1000 nM,< 10 nM,10 to 100 nM,< 10 nM,< 10 nM,> 1000 nM,,,
"Cc1ccc(-c2cc(Oc3ccc(NC(=O)NC(=O)C(C)(C)C)nc3)ccn2)cn1 [Example 73, N-((5-((6′-methyl-[2,3′-bipyridin]-4-yl)oxy)pyridin-2-yl)carbamoyl)pivalamide]",100 to 1000 nM,< 10 nM,10 to 100 nM,< 10 nM,< 10 nM,> 1000 nM,,,
"CC(C)C(=O)NC(=O)Nc1ccc(Oc2ccnc(-c3ccc(C4CCN(C)CC4)cc3)c2)cn1 [Example 75, N-((5-((2-(4-(1-methylpiperidin-4-yl)phenyl)pyridin-4-yl)oxy)pyridin-2-yl)carbamoyl)isobutyramide]",100 to 1000 nM,< 10 nM,< 10 nM,< 10 nM,< 10 nM,100 to 1000 nM,,,
"CCc1nc(NC(=O)NC(=O)C2CCOCC2)ccc1Oc1ccnc(-c2cnn(C)c2)c1 [Example 83, N-((6-ethyl-5-((2-(1-methyl-1H-pyrazol-4-yl)pyridin-4-yl)oxy)pyridin-2-yl)carbamoyl)tetrahydro-2H-pyran-4-carboxamide]",> 1000 nM,< 10 nM,10 to 100 nM,10 to 100 nM,100 to 1000 nM,> 1000 nM,,,
"Cc1cc(NC(=O)NC(=O)C(C)(C)C)ncc1Oc1ccnc(-c2cnn(C)c2)c1 [Example 84, N-((4-methyl-5-((2-(1-methyl-1H-pyrazol-4-yl)pyridin-4-yl)oxy)pyridin-2-yl)carbamoyl)pivalamide]",100 to 1000 nM,< 10 nM,< 10 nM,< 10 nM,< 10 nM,100 to 1000 nM,,,
"Cc1ncc(-c2cc(Oc3ccc(NC(=O)NC(=O)C(C)(C)C)nc3C)ccn2)s1 [Example 86, N-((6-methyl-5-((2-(2-methylthiazol-5-yl)pyridin-4-yl)oxy)pyridin-2-yl)carbamoyl)pivalamide]",> 1000 nM,< 10 nM,< 10 nM,10 to 100 nM,< 10 nM,> 1000 nM,,,
"COC(C)(C)C(=O)NC(=O)Nc1cc(C)c(Oc2ccnc(-c3cnn(C)c3)c2)cn1 [Example 91, 2-methoxy-2-methyl-N-((4-methyl-5-((2-(1-methyl-1H-pyrazol-4-yl)pyridin-4-yl)oxy)pyridin-2-yl)carbamoyl)propanamide]",100 to 1000 nM,< 10 nM,< 10 nM,< 10 nM,< 10 nM,10 to 100 nM,,,
"Cc1nc(NC(=O)NC(=O)C2(C)CCC2)ccc1Oc1ccnc(-c2cnn(C)c2)c1 [Example 92, 1-methyl-N-((6-methyl-5-((2-(1-methyl-1H-pyrazol-4-yl)pyridin-4-yl)oxy)pyridin-2-yl)carbamoyl)cyclobutanecarboxamide]",100 to 1000 nM,< 10 nM,< 10 nM,< 10 nM,< 10 nM,100 to 1000 nM,,,
"CC(C)(C)C(=O)NC(=O)Nc1ccc(Oc2ccnc(-c3cnco3)c2)cn1 [Example 93, N-((5-((2-(oxazol-5-yl)pyridin-4-yl)oxy)pyridin-2-yl)carbamoyl)pivalamide]",> 1000 nM,10 to 100 nM,10 to 100 nM,< 10 nM,< 10 nM,> 1000 nM,,,
"Cc1cn(-c2cc(Oc3ccc(NC(=O)NC(=O)C(C)(C)C)nc3)ccn2)cn1 [Example 99, N-((5-((2-(4-methyl-1H-imidazol-1-yl)pyridin-4-yl)oxy)pyridin-2-yl)carbamoyl)pivalamide]",100 to 1000 nM,< 10 nM,10 to 100 nM,10 to 100 nM,< 10 nM,> 1000 nM,366 nM,4 nM,4000 nM
"Cc1ccc(-c2cc(Oc3ccc(NC(=O)NC(=O)C4CCOCC4)nc3)ccn2)cn1 [Example 103, N-((5-((6′-methyl-[2,3′-bipyridin]-4-yl)oxy)pyridin-2-yl)carbamoyl)tetrahydro-2H-pyran-4-carboxamide]",100 to 1000 nM,10 to 100 nM,10 to 100 nM,10 to 100 nM,< 10 nM,> 1000 nM,,,
